Assay results published in ChEMBL document CHEMBL1201862, “PubChem BioAssay data set” (2004).
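Briefly, cells in 96-well plates were exposed to five compound concentrations for 48 h, and endpoints were estimated by linear interpolation. GI50: concentration for 50% inhibition of growth.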 Calls of active or inactive are those of the source. Cut-off read from the data, not from the text of the source: active = GI50 up to about 1.1 µM and inactive = higher. Where a SMILES comes first, the peptide text is derived from it.

How the values were obtained:
Experiment in all cases: growth of human tumour cells (NCI), 48 h
786-0 = test system: 786-0
A498 = test system: A498
A549 = test system: A549
ACHN = test system: ACHN
CCRF-CEM = test system: CCRF-CEM
COLO 205 = test system: COLO 205
DLD-1 = test system: DLD-1
DMS-114 = test system: DMS-114
DMS-273 = test system: DMS-273
EKVX = test system: EKVX
HCC 2998 = test system: HCC 2998
HCT-116 = test system: HCT-116
HL-60 = test system: HL-60
HOP-62 = test system: HOP-62
HOP-92 = test system: HOP-92
HT-29 = test system: HT-29
IGROV-1 = test system: IGROV-1
K562 = test system: K562
KM-20L2 = test system: KM-20L2
KM12 = test system: KM12
LOX IMVI = test system: LOX IMVI
LXFL 529 = test system: LXFL 529
M14 = test system: M14
M19-MEL = test system: M19-MEL
MOLT-4 = test system: MOLT-4
Malme-3M = test system: Malme-3M
NCI-H226 = test system: NCI-H226
NCI-H23 = test system: NCI-H23
NCI-H460 = test system: NCI-H460
NCI-H522 = test system: NCI-H522
OVCAR-3 = test system: OVCAR-3
OVCAR-5 = test system: OVCAR-5
OVCAR-8 = test system: OVCAR-8
RPMI-8226 = test system: RPMI-8226
RXF 393 = test system: RXF 393
RXF 631 = test system: RXF 631
SF-268 = test system: SF-268
SF-295 = test system: SF-295
SF-539 = test system: SF-539
SK-MEL-28 = test system: SK-MEL-28
SK-MEL-2 = test system: SK-MEL-2
SK-MEL-5 = test system: SK-MEL-5
SK-OV-3 = test system: SK-OV-3
SNB-75 = test system: SNB-75
SNB-78 = test system: SNB-78
SW-620 = test system: SW-620
TK-10 = test system: TK-10
U-251 = test system: U-251
UACC-257 = test system: UACC-257
UACC-62 = test system: UACC-62
UO-31 = test system: UO-31
XF498 = test system: XF498
SNB-19 = test system: SNB-19
SR = test system: SR
CAKI-1 = test system: CAKI-1
HCT-15 = test system: HCT-15
HOP-18 = test system: HOP-18
OVCAR-4 = test system: OVCAR-4
SN12C = test system: SN12C

C/C(CC(=O)Nc1ccc(C)cc1C)=N/N=C(N)N
GI50 (786-0): > 100 µM (inactive)
GI50 (A498): > 100 µM (inactive)
GI50 (A549): > 100 µM (inactive)
GI50 (ACHN): > 100 µM (inactive)
GI50 (CCRF-CEM): > 100 µM (inactive)
GI50 (COLO 205): > 100 µM (inactive)
GI50 (DLD-1): > 100 µM (inactive)
GI50 (DMS-114): > 100 µM (inactive)
GI50 (DMS-273): > 100 µM (inactive)
GI50 (EKVX): > 100 µM (inactive)
GI50 (HCC 2998): > 100 µM (inactive)
GI50 (HCT-116): > 100 µM (inactive)
GI50 (HL-60): > 100 µM (inactive)
GI50 (HOP-62): > 100 µM (inactive)
GI50 (HOP-92): > 100 µM (inactive)
GI50 (HT-29): > 100 µM (inactive)
GI50 (IGROV-1): > 100 µM (inactive)
GI50 (K562): > 100 µM (inactive)
GI50 (KM-20L2): > 100 µM (inactive)
GI50 (KM12): > 100 µM (inactive)
GI50 (LOX IMVI): > 100 µM (inactive)
GI50 (LXFL 529): > 100 µM (inactive)
GI50 (M14): > 100 µM (inactive)
GI50 (M19-MEL): > 100 µM (inactive)
GI50 (MOLT-4): > 100 µM (inactive)
GI50 (Malme-3M): > 100 µM (inactive)
GI50 (NCI-H226): > 100 µM (inactive)
GI50 (NCI-H23): > 100 µM (inactive)
GI50 (NCI-H460): > 100 µM (inactive)
GI50 (NCI-H522): > 100 µM (inactive)
GI50 (OVCAR-3): > 100 µM (inactive)
GI50 (OVCAR-5): > 100 µM (inactive)
GI50 (OVCAR-8): > 100 µM (inactive)
GI50 (RPMI-8226): > 100 µM (inactive)
GI50 (RXF 393): > 100 µM (inactive)
GI50 (RXF 631): > 100 µM (inactive)
GI50 (SF-268): > 100 µM (inactive)
GI50 (SF-295): > 100 µM (inactive)
GI50 (SF-539): > 100 µM (inactive)
GI50 (SK-MEL-28): > 100 µM (inactive)
GI50 (SK-MEL-2): > 100 µM (inactive)
GI50 (SK-MEL-5): > 100 µM (inactive)
GI50 (SK-OV-3): > 100 µM (inactive)
GI50 (SNB-75): > 100 µM (inactive)
GI50 (SNB-78): > 100 µM (inactive)
GI50 (SW-620): > 100 µM (inactive)
GI50 (TK-10): > 100 µM (inactive)
GI50 (U-251): > 100 µM (inactive)
GI50 (UACC-257): > 100 µM (inactive)
GI50 (UACC-62): > 100 µM (inactive)
GI50 (UO-31): > 100 µM (inactive)
GI50 (XF498): > 100 µM (inactive)

CC1(Cl)CCC2(CC(Br)=CC3OC32C)CC1Br (stereo not drawn)
GI50 (A498): 26.6 µM (inactive)
GI50 (A549): 28.6 µM (inactive)
GI50 (CCRF-CEM): 18.6 µM (inactive)
GI50 (DMS-114): 29.4 µM (inactive)
GI50 (EKVX): 52.6 µM (inactive)
GI50 (HCT-116): 18.2 µM (inactive)
GI50 (HL-60): 15.2 µM (inactive)
GI50 (HOP-62): 39.4 µM (inactive)
GI50 (HOP-92): 24.9 µM (inactive)
GI50 (HT-29): 17.9 µM (inactive)
GI50 (IGROV-1): 42.9 µM (inactive)
GI50 (KM12): 32.5 µM (inactive)
GI50 (M14): 43.2 µM (inactive)
GI50 (M19-MEL): 32.3 µM (inactive)
GI50 (MOLT-4): 17 µM (inactive)
GI50 (NCI-H226): 23.2 µM (inactive)
GI50 (NCI-H23): 20.1 µM (inactive)
GI50 (NCI-H460): 27.1 µM (inactive)
GI50 (NCI-H522): 23.9 µM (inactive)
GI50 (OVCAR-5): 79.4 µM (inactive)
GI50 (OVCAR-8): 30.8 µM (inactive)
GI50 (RXF 393): 18.3 µM (inactive)
GI50 (RXF 631): > 10 µM (inactive)
GI50 (SF-268): 19.2 µM (inactive)
GI50 (SF-295): 22.6 µM (inactive)
GI50 (SK-MEL-28): 23.6 µM (inactive)
GI50 (SK-OV-3): 51.8 µM (inactive)
GI50 (SNB-19): 45 µM (inactive)
GI50 (SNB-78): 12.4 µM (inactive)
GI50 (SR): 20.7 µM (inactive)
GI50 (TK-10): 46.6 µM (inactive)
GI50 (U-251): 19 µM (inactive)
GI50 (UACC-257): 18.4 µM (inactive)
GI50 (UACC-62): 19.2 µM (inactive)
GI50 (UO-31): 28.6 µM (inactive)

CCC(C)C1NC(=O)C2CCCN2C(=O)CNC(=O)C(C)NC(=O)C(Cc2ccccc2)NC(=O)C(C(C)C)NC1=O (stereo not drawn) (cyclo(GPIVFA); configuration not given here)
GI50 (786-0): > 100 µM (inactive)
GI50 (A498): > 100 µM (inactive)
GI50 (A549): > 100 µM (inactive)
GI50 (ACHN): > 100 µM (inactive)
GI50 (CAKI-1): > 100 µM (inactive)
GI50 (COLO 205): > 100 µM (inactive)
GI50 (DLD-1): > 100 µM (inactive)
GI50 (DMS-114): > 100 µM (inactive)
GI50 (EKVX): > 100 µM (inactive)
GI50 (HCC 2998): > 100 µM (inactive)
GI50 (HCT-116): > 100 µM (inactive)
GI50 (HCT-15): > 100 µM
GI50 (HOP-18): > 100 µM (inactive)
GI50 (HOP-62): > 100 µM (inactive)
GI50 (HOP-92): > 100 µM (inactive)
GI50 (HT-29): > 100 µM (inactive)
GI50 (IGROV-1): > 100 µM (inactive)
GI50 (KM-20L2): > 100 µM (inactive)
GI50 (KM12): 61.2 µM (inactive)
GI50 (LOX IMVI): > 100 µM (inactive)
GI50 (LXFL 529): > 100 µM (inactive)
GI50 (M14): > 100 µM (inactive)
GI50 (M19-MEL): > 100 µM (inactive)
GI50 (MOLT-4): > 100 µM (inactive)
GI50 (Malme-3M): > 100 µM (inactive)
GI50 (NCI-H226): > 100 µM (inactive)
GI50 (NCI-H23): > 100 µM (inactive)
GI50 (NCI-H460): > 100 µM (inactive)
GI50 (OVCAR-3): > 100 µM (inactive)
GI50 (OVCAR-4): > 100 µM (inactive)
GI50 (OVCAR-5): > 100 µM (inactive)
GI50 (OVCAR-8): > 100 µM (inactive)
GI50 (RPMI-8226): > 100 µM (inactive)
GI50 (RXF 393): > 100 µM (inactive)
GI50 (RXF 631): > 100 µM (inactive)
GI50 (SF-268): > 100 µM (inactive)
GI50 (SF-295): > 100 µM (inactive)
GI50 (SF-539): > 100 µM (inactive)
GI50 (SK-MEL-28): > 100 µM (inactive)
GI50 (SK-MEL-5): > 100 µM (inactive)
GI50 (SK-OV-3): > 100 µM (inactive)
GI50 (SN12C): > 100 µM (inactive)
GI50 (SNB-19): > 100 µM (inactive)
GI50 (SNB-75): > 100 µM (inactive)
GI50 (SR): > 100 µM (inactive)
GI50 (SW-620): > 100 µM (inactive)
GI50 (TK-10): > 100 µM (inactive)
GI50 (U-251): > 100 µM (inactive)
GI50 (UACC-257): > 100 µM (inactive)
GI50 (UACC-62): > 100 µM (inactive)
GI50 (UO-31): > 100 µM (inactive)
